In US20230027295A1, “FXIA INHIBITORS AND PREPARATION METHOD THEREFOR AND PHARMACEUTICAL USE THEREOF” (Shenzhen Salubris Pharmaceuticals Co., Ltd., priority 2019, published 2023):

How the values were obtained:
hFIIa = molecular target: T1, hFIIa (Homo sapiens, UniProt P00734); test: Selectivity to coagulation factors: hFIIa (substrate S-2238); format: biochemical
T1 construct: purchased HT5146L
Experimental: (§1) Example 52: Investigation of the Selectivity of the Compounds of the Present Invention to Coagulation Factors
(§2) Enzyme: hFXa: Human Factor Xa: 71nkat. hFIIa: HT5146L. hFVIIa: Human Factor VIIa: hFVIIa 4591L. kallikrein: LOT180223.
(§3) 10 mM test compound dissolved in 100% DMSO was diluted with 100% DMSO to 1000, 200, 40, 8, 1.6 μM. 98 μL of enzyme solution was added to each well of a 96-well plate, while 98 μL of buffer was added to the blank wells. 2 μL of compounds of different concentrations were added, while the blank and control wells were added with DMSO instead. They were mixed with a shaker, and incubated at 37° C. for 20 min.
(§4) The concentrations of hFXa and S-2222™ were FXa (1:28) and 800 μmol/L, respectively. The concentrations of hFIIa and S-2238™ were hFIIa (0.06 U/ml) and 500 μmol/L, respectively. The concentrations of hFVIIa and S-2288™ were hFVIIa (80 nM) and 1600 μmol/L, respectively. The concentrations of kallikrein and substrate were kallikrein (20 nM) and 1600 μmol/L, respectively.
(§5) Finally, 100 μL substrate was added to each well, and its absorbance was measured at 405 nm.

Human Factor VIIa = molecular target: T2, Human Factor VIIa (Homo sapiens, UniProt P08709); test: Selectivity to coagulation factors: hFVIIa (substrate S-2288); format: biochemical
T2 construct: hFVIIa: Human Factor VIIa: hFVIIa 4591L; purchased hFVIIa 4591L
T2 sequence (P08709 213-466 limits assumed): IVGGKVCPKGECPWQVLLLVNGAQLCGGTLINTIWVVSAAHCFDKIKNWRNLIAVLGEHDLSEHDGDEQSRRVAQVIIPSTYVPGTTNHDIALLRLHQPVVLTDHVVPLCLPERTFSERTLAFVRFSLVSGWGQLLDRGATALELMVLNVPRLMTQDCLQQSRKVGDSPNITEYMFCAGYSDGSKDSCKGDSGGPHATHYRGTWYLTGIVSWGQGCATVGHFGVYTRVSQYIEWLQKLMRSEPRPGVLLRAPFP
T2 sequence (P08709 61-212 partner limits assumed): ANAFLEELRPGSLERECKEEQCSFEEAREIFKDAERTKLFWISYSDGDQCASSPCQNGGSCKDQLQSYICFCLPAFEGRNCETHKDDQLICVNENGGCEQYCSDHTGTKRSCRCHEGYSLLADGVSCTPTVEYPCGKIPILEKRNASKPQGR
Experimental: as §1, §2, §3, §4, §5

CYP2C19 = molecular target: T3, CYP2C19 (Homo sapiens, UniProt P33261); test: CYP enzyme inhibition in liver microsomes: CYP2C19; format: in vitro ADME; settings: 0.2 mg/mL liver microsomes
T3 construct: Liver microsomes (150-donor, Corning, Cat. 452117; Lot; 38292), NADPH; tissue Corning 452117; host or cells: liver microsomes, 150-donor pool
Experimental: (§6) Example 55: Investigation of CYP Enzyme Inhibition by the Compounds of the Present Invention Liver microsomes (150-donor, Corning, Cat. 452117; Lot. 38292), NADPH. A 0.2 mg/mL microsome system was prepared, each test substance and substrate were added, and the final concentration of the test substance was 50 μM. After pre-incubating for 8 min, 10 mM NADPH was added to start the reaction, and the final concentration of NADPH was 1 mM. After a period of incubation, an internal standard such as methanol was added to stop the reaction. The amount of substrate metabolites generated in each reaction well was detected. Data processing: Taking the metabolite generation in the blank well as 100%, the reduction of metabolite generation in each well of the test substance was calculated, and the inhibition rate was calculated.

Human Factor Xa = molecular target: T4, Human Factor Xa (Homo sapiens, UniProt P00742); test: Selectivity to coagulation factors: hFXa (substrate S-2222); format: biochemical
T4 construct: hFXa: Human Factor Xa: 71nkat; purchased 71nkat
Experimental: as §1, §2
hFXa buffer: 100 mM NaCl, 5 mM CaCl2, 33% ethylene glycol, 50 mM Tris (pH 7.5).
as §3, §4, §5

CYP2C8 = molecular target: T5, CYP2C8 (Homo sapiens, UniProt P10632); test: CYP enzyme inhibition in liver microsomes: CYP2C8; format: in vitro ADME; settings: 0.2 mg/mL liver microsomes
T5 construct: Liver microsomes (150-donor, Corning, Cat. 452117; Lot; 38292), NADPH; tissue Corning 452117; host or cells: liver microsomes, 150-donor pool
T5 sequence (P10632 1-490): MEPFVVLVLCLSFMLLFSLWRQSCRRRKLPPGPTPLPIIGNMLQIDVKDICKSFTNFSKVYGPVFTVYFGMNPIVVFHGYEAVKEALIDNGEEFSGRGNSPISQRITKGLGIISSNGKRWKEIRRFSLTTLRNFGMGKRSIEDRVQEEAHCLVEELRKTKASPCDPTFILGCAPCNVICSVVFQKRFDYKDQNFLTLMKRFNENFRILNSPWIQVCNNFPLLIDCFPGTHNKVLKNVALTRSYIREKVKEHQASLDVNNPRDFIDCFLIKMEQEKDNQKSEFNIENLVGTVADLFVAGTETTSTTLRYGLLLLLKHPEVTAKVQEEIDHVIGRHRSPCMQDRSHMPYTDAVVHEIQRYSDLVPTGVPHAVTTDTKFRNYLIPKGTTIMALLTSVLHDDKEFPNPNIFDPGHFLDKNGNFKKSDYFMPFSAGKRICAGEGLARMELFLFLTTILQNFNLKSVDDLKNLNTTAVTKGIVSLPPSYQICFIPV
Experimental: as §6

T4 sequence (P00742 235-488 limits assumed): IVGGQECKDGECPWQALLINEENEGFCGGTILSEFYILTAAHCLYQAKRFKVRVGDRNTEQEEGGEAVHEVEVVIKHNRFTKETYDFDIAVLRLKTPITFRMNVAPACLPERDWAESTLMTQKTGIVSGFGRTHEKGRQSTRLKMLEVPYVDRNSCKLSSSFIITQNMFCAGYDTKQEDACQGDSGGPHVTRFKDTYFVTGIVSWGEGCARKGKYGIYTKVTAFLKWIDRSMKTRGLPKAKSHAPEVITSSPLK
T4 sequence (P00742 41-179 partner limits assumed): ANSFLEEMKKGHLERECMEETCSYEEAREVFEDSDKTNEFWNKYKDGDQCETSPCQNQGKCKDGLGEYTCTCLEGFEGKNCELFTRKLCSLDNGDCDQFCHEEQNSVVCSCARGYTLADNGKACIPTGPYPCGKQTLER
T3 sequence (P33261 whole entry): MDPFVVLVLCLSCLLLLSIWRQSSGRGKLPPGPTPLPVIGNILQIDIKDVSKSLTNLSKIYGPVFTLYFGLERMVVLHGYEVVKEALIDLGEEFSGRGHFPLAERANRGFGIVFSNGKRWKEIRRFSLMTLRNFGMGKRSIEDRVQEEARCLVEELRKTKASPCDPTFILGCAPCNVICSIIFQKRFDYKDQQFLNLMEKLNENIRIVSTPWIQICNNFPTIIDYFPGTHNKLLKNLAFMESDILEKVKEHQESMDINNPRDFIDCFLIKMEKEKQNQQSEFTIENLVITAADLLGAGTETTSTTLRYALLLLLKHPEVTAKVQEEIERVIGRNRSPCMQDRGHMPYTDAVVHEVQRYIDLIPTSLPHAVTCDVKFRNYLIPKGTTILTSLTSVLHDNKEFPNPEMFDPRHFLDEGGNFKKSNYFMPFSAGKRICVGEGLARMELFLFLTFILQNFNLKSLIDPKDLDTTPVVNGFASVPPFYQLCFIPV

IC50 (hFIIa) | IC50 (Human Factor VIIa) | IC50 (CYP2C19) | IC50 (Human Factor Xa) | IC50 (CYP2C8) | Structure (SMILES)
> 100 µM | > 100 µM | > 50 µM | > 100 µM | ~50 µM | COc1nn([C@@H](Cc2ccccc2)C(=O)Nc2ccc(C(=O)O)cc2)c(=O)cc1-c1cc(Cl)ccc1C(C)=O [Example 19, (S)-4-(2-(4-(2-acetyl-5-chlorophenyl)-3-methoxy-6-oxopyridazin-1(6H)-yl)-3-phenylpropanamido)benzoic acid]
> 100 µM | > 100 µM | > 50 µM | > 100 µM | ~30 µM | CCC(=O)c1ccc(Cl)cc1-c1cc(=O)n([C@@H](Cc2ccccc2)C(=O)Nc2ccc(C(=O)O)cc2)nc1OC [Example 32]
